Measurements from patent US20220119354A1, “DIAMINO-SUBSTITUTED PYRIDINES AND PYRIMIDINES AS HERBICIDES” (FMC Corporation, priority 2019, published 2022).

Key:
Type in all cases: in vivo
[1] = system: ragweed (common ragweed, Ambrosia elatior); experiment: Test A postemergence, ragweed; conditions: 0 to 100 scale, 0 no effect, 100 complete control
Procedure, shortened: (§1)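 Plants grown in a loam soil and sand blend were treated either preemergence by directed soil spray or postemergence when 2 to 10 cm tall (one- to two-leaf stage). Formulation: non-phytotoxic solvent mixture with surfactant. Greenhouse hold ~10 d, then visual injury assessment on a 0–100 scale.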

corn (Zea mays) = experiment: Test A postemergence, corn; conditions: 0 to 100 scale, 0 no effect, 100 complete control
Procedure, shortened: as §1

[2] = system: barnyardgrass (Echinochloa crus-galli); experiment: Test A postemergence, barnyardgrass; conditions: 0 to 100 scale, 0 no effect, 100 complete control
Procedure, shortened: as §1

rice (Oryza sativa) = experiment: Test B flooded paddy test, rice; conditions: Flood, 250 g ai/ha, applied to paddy water, 2-leaf stage, visual evaluation after 13 to 15 d
Procedure, shortened: (§2)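 Growth to two leaves preceded treatment. Flooding to 3 cm above soil surface, then water-applied compound; depth kept constant. Scored visually relative to controls after 13–15 d greenhouse; 100 means full control.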

[3] = system: barnyardgrass (Echinochloa crus-galli); experiment: Test B flooded paddy test, barnyardgrass; conditions: Flood, 250 g ai/ha, applied to paddy water, 2-leaf stage, visual evaluation after 13 to 15 d
Procedure, shortened: as §2

[4] = system: ragweed (common ragweed, Ambrosia elatior); experiment: Test A preemergence, ragweed; conditions: 0 to 100 scale, 0 is no effect, 100 is complete control
Procedure, shortened: as §1

[5] = system: sedge, umbrella (small-flower umbrella sedge, Cyperus difformis); experiment: Test B flooded paddy test, umbrella sedge; conditions: Flood, 250 g ai/ha, applied to paddy water, 2-leaf stage, visual evaluation after 13 to 15 d
Procedure, shortened: as §2

[6] = system: pigweed (Amaranthus retroflexus); experiment: Test A preemergence, pigweed; conditions: 0 to 100 scale, 0 is no effect, 100 is complete control
Procedure, shortened: as §1

kochia (Kochia scoparia) [7] = experiment: Test A preemergence, kochia; conditions: 0 to 100 scale, 0 is no effect, 100 is complete control
Procedure, shortened: as §1

[8] = system: ryegrass, Italian (Lolium multiflorum); experiment: Test A preemergence, Italian ryegrass; conditions: 0 to 100 scale, 0 is no effect, 100 is complete control
Procedure, shortened: as §1

[9] = system: foxtail, giant (Setaria faberii); experiment: Test A preemergence, giant foxtail; conditions: 0 to 100 scale, 0 is no effect, 100 is complete control
Procedure, shortened: as §1

[10] = system: galium (catchweed bedstraw, Galium aparine); experiment: Test A postemergence, galium; conditions: 0 to 100 scale, 0 no effect, 100 complete control
Procedure, shortened: as §1

[11] = system: wheat (Triticum aestivum); experiment: Test A postemergence, wheat; conditions: 0 to 100 scale, 0 no effect, 100 complete control
Procedure, shortened: as §1

[12] = system: pigweed (Amaranthus retroflexus); experiment: Test A postemergence, pigweed; conditions: 0 to 100 scale, 0 no effect, 100 complete control
Procedure, shortened: as §1

[13] = system: barnyardgrass (Echinochloa crus-galli); experiment: Test A preemergence, barnyardgrass; conditions: 0 to 100 scale, 0 is no effect, 100 is complete control
Procedure, shortened: as §1

[14] = system: ducksalad (Heteranthera limosa); experiment: Test B flooded paddy test, ducksalad; conditions: Flood, 250 g ai/ha, applied to paddy water, 2-leaf stage, visual evaluation after 13 to 15 d
Procedure, shortened: as §2

kochia (Kochia scoparia) [15] = experiment: Test A postemergence, kochia; conditions: 0 to 100 scale, 0 no effect, 100 complete control
Procedure, shortened: as §1

[16] = system: foxtail, giant (Setaria faberii); experiment: Test A postemergence, giant foxtail; conditions: 0 to 100 scale, 0 no effect, 100 complete control
Procedure, shortened: as §1

[17] = system: ryegrass, Italian (Lolium multiflorum); experiment: Test A postemergence, Italian ryegrass; conditions: 0 to 100 scale, 0 no effect, 100 complete control
Procedure, shortened: as §1

[18] = system: blackgrass (Alopecurus myosuroides); experiment: Test A postemergence, blackgrass; conditions: 0 to 100 scale, 0 no effect, 100 complete control
Procedure, shortened: as §1

Compound | Plant response rating, Ragweed ([1]; 125 g ai/ha) | Plant response rating, Ragweed ([1]; 500 g ai/ha) | Plant response rating, Corn (corn (Zea mays); 125 g ai/ha) | Plant response rating, Corn (corn (Zea mays); 500 g ai/ha) | Plant response rating, Barnyardgrass ([2]; 125 g ai/ha) | Plant response rating, Barnyardgrass ([2]; 500 g ai/ha) | Plant response rating, Rice (0 to 100 scale, 0 is no effect, 100 is complete control) (rice (Oryza sativa)) | Plant response rating, Barnyardgrass (0 to 100 scale, 0 is no effect, 100 is complete control) [3] | Ragweed plant response rating ([4]; 125 g ai/ha) | Ragweed plant response rating ([4]; 500 g ai/ha) | Plant response rating, Sedge, Umbrella (0 to 100 scale, 0 is no effect, 100 is complete control) [5] | Pigweed plant response rating ([6]; 125 g ai/ha) | Pigweed plant response rating ([6]; 500 g ai/ha) | Kochia plant response rating (kochia (Kochia scoparia) [7]; 125 g ai/ha) | Kochia plant response rating (kochia (Kochia scoparia) [7]; 500 g ai/ha) | Ryegrass, Italian plant response rating ([8]; 125 g ai/ha) | Ryegrass, Italian plant response rating ([8]; 500 g ai/ha) | Foxtail, Giant plant response rating ([9]; 125 g ai/ha) | Foxtail, Giant plant response rating ([9]; 500 g ai/ha) | Plant response rating, Galium ([10]; 125 g ai/ha) | also measured
CC(Nc1ncc(C(F)(F)F)c(N)n1)c1cc2ccc(F)c(F)c2s1 (stereo not drawn) [Compound 86] | 20 | 80 | 0 | 0 | 40 | 50 | 0 | 60 | 100 | 100 | 98 | 100 | 100 | 80 | 100 | 20 | 70 | 70 | 100 | 70 | Plant response rating, Galium ([10]; 500 g ai/ha): 70; Plant response rating, Wheat ([11]; 125 g ai/ha): 0; Plant response rating, Wheat ([11]; 500 g ai/ha): 0; Plant response rating, Pigweed ([12]; 125 g ai/ha): 90; Plant response rating, Pigweed ([12]; 500 g ai/ha): 100; Barnyardgrass plant response rating ([13]; 125 g ai/ha): 70; Barnyardgrass plant response rating ([13]; 500 g ai/ha): 90; Plant response rating, Ducksalad (0 to 100 scale, 0 is no effect, 100 is complete control) [14]: 75; Plant response rating, Kochia (kochia (Kochia scoparia) [15]; 125 g ai/ha): 70; Plant response rating, Kochia (kochia (Kochia scoparia) [15]; 500 g ai/ha): 90; Plant response rating, Foxtail, Giant ([16]; 125 g ai/ha): 60; Plant response rating, Foxtail, Giant ([16]; 500 g ai/ha): 60; Plant response rating, Ryegrass, Italian ([17]; 125 g ai/ha): 0; Plant response rating, Ryegrass, Italian ([17]; 500 g ai/ha): 50; Plant response rating, Blackgrass ([18]; 125 g ai/ha): 0; Plant response rating, Blackgrass ([18]; 500 g ai/ha): 10
CC(Nc1nc(N)c(C(F)(F)F)c(C(F)(F)F)n1)c1coc2ccccc12 (stereo not drawn) [Compound 87] | 0 | 20 | 0 | 0 | 0 | 0 | 0 | 0 | 0 | 0 | 0 | 0 | 10 | 0 | 0 | 0 | 0 | 0 | 0 | 0 | Plant response rating, Galium ([10]; 500 g ai/ha): 0; Plant response rating, Wheat ([11]; 125 g ai/ha): 0; Plant response rating, Wheat ([11]; 500 g ai/ha): 0; Plant response rating, Pigweed ([12]; 125 g ai/ha): 0; Plant response rating, Pigweed ([12]; 500 g ai/ha): 60; Barnyardgrass plant response rating ([13]; 125 g ai/ha): 0; Barnyardgrass plant response rating ([13]; 500 g ai/ha): 0; Plant response rating, Ducksalad (0 to 100 scale, 0 is no effect, 100 is complete control) [14]: 0; Plant response rating, Kochia (kochia (Kochia scoparia) [15]; 125 g ai/ha): 0; Plant response rating, Kochia (kochia (Kochia scoparia) [15]; 500 g ai/ha): 30; Plant response rating, Foxtail, Giant ([16]; 125 g ai/ha): 0; Plant response rating, Foxtail, Giant ([16]; 500 g ai/ha): 0; Plant response rating, Ryegrass, Italian ([17]; 125 g ai/ha): 0; Plant response rating, Ryegrass, Italian ([17]; 500 g ai/ha): 0; Plant response rating, Blackgrass ([18]; 125 g ai/ha): 0; Plant response rating, Blackgrass ([18]; 500 g ai/ha): 0
